Source: the NIST ThermoML archive (doi:10.1016/j.jct.2012.04.005)
“And” between values parts separate entries of the source, which are not always exact repeats. Equal entries are not always repeated.

Conditions: isochoric method

CCOCC [diethyl ether]
Liquid
Conditions | mass density
416.1 K | 534.6 kg/m3
425.19 K | 517.3 kg/m3
437.14 K | 485.2 kg/m3
450.6 K | 441.5 kg/m3
450.77 K | 440.8 kg/m3
459.61 K | 394.8 kg/m3
464.79 K | 348.2 kg/m3
466.12 K | 212.6 kg/m3
466.47 K | 310.8 kg/m3
466.66 K | 233.7 kg/m3
466.75 K | 296.7 kg/m3
466.8 K | 288.3 kg/m3
466.81 K | 278.7 kg/m3
466.82 K | 275.7 kg/m3
466.83 K | 255 kg/m3 and 260.7 kg/m3
466.85 K | 261.2 kg/m3

Conditions | mass density [kg/m3]
416.3 K, 1625 kPa, Liquid | 534.6
416.83 K, 1747 kPa, Liquid | 534.6
416.93 K, 1693 kPa, Liquid | 534.6
417.26 K, 1783 kPa, Liquid | 534.6
418.11 K, 2014 kPa, Liquid | 534.6
420.91 K, 2770 kPa, Liquid | 534.6
421.09 K, 2823 kPa, Liquid | 534.6
422.05 K, 3084 kPa, Liquid | 534.6
425.27 K, 1926 kPa, Liquid | 517.3
425.69 K, 4074 kPa, Liquid | 534.6
425.75 K, 2146 kPa, Liquid | 517.3
425.83 K, 2193 kPa, Liquid | 517.3
425.96 K, 4149 kPa, Liquid | 534.6
426.06 K, 2271 kPa, Liquid | 517.3
426.78 K, 2602 kPa, Liquid | 517.3
427.43 K, 4552 kPa, Liquid | 534.6
432.78 K, 5984 kPa, Liquid | 534.6
432.99 K, 6050 kPa, Liquid | 534.6
433.93 K, 6306 kPa, Liquid | 534.6
437.48 K, 2381 kPa, Liquid | 485.2
437.61 K, 2392 kPa, Liquid | 485.2
437.68 K, 2382 kPa, Liquid | 485.2
437.79 K, 2430 kPa, Liquid | 485.2
438.72 K, 2616 kPa, Liquid | 485.2
438.85 K, 7649 kPa, Liquid | 534.6
439.14 K, 7729 kPa, Liquid | 534.6
439.97 K, 7955 kPa, Liquid | 534.6
445.62 K, 3997 kPa, Liquid | 485.2
445.85 K, 4046 kPa, Liquid | 485.2
446.57 K, 4191 kPa, Liquid | 485.2
448.81 K, 10345 kPa, Liquid | 534.6
449.04 K, 10408 kPa, Liquid | 534.6
449.96 K, 10662 kPa, Liquid | 534.6
450.97 K, 2954 kPa, Liquid | 441.5
450.98 K, 2969 kPa, Liquid | 440.8
451.08 K, 2998 kPa, Liquid | 440.8
451.17 K, 3017 kPa, Liquid | 440.8
451.49 K, 3039 kPa, Liquid | 441.5
451.69 K, 3088 kPa, Liquid | 441.5
452.31 K, 3185 kPa, Liquid | 440.8
452.82 K, 3254 kPa, Liquid | 441.5
459.55 K, 6842 kPa, Liquid | 485.2
459.83 K, 6900 kPa, Liquid | 485.2
460.03 K, 3345 kPa, Liquid | 394.8
460.23 K, 3396 kPa, Liquid | 394.8
460.36 K, 3392 kPa, Liquid | 394.8
460.5 K, 13585 kPa, Liquid | 534.6
460.64 K, 7064 kPa, Liquid | 485.2
460.64 K, 13628 kPa, Liquid | 534.6
461.45 K, 3512 kPa, Liquid | 394.8
461.55 K, 13877 kPa, Liquid | 534.6
461.58 K, 4562 kPa, Liquid | 441.5
461.85 K, 4602 kPa, Liquid | 441.5
461.98 K, 4645 kPa, Liquid | 440.8
462.66 K, 4726 kPa, Liquid | 441.5
463.06 K, 4812 kPa, Liquid | 440.8
465.09 K, 3597 kPa, Liquid | 348.2
465.58 K, 3635 kPa, Liquid | 348.2
465.68 K, 3649 kPa, Liquid | 348.2
465.84 K, 3662 kPa, Liquid | 348.2
466.13 K, 3555 kPa, Gas | 212.6
466.67 K, 3560 kPa, Gas | 233.7
466.68 K, 3578 kPa, Gas | 212.6
466.76 K, 3609 kPa, Liquid | 296.7
466.85 K, 3565 kPa, Gas | 260.7
466.87 K, 3577 kPa, Liquid | 275.7
466.88 K, 3561 kPa, Liquid | 261.2
466.88 K, 3641 kPa, Liquid | 310.8
466.89 K, 3586 kPa, Gas | 255
467.09 K, 3625 kPa, Liquid | 278.8
467.09 K, 3678 kPa, Liquid | 310.8
467.29 K, 3582 kPa, Liquid | 261.2
467.29 K, 3591 kPa, Gas | 233.7
467.29 K, 3602 kPa, Liquid | 275.7
467.29 K, 3605 kPa, Gas | 255
467.39 K, 3612 kPa, Gas | 255
467.47 K, 3597 kPa, Gas | 233.7
467.49 K, 3648 kPa, Liquid | 296.7
467.5 K, 3591 kPa, Liquid | 261.2
467.57 K, 3699 kPa, Liquid | 310.8
467.62 K, 3606 kPa, Gas | 260.7
467.69 K, 3637 kPa, Liquid | 288.3
467.96 K, 3736 kPa, Liquid | 310.8
468.29 K, 3629 kPa, Gas | 233.7
468.29 K, 3662 kPa, Gas | 255
468.39 K, 3632 kPa, Liquid | 261.2
468.52 K, 3635 kPa, Gas | 212.6
468.69 K, 3669 kPa, Gas | 260.7
468.69 K, 3721 kPa, Liquid | 278.8
468.69 K, 3780 kPa, Liquid | 310.8
468.83 K, 3719 kPa, Liquid | 278.8
468.94 K, 3681 kPa, Liquid | 275.7
469.49 K, 3681 kPa, Gas | 212.6
469.89 K, 3738 kPa, Liquid | 275.7
469.89 K, 3776 kPa, Liquid | 278.8
470.22 K, 4019 kPa, Liquid | 348.2
470.71 K, 16287 kPa, Liquid | 534.6
470.75 K, 3929 kPa, Liquid | 296.7
471.09 K, 16390 kPa, Liquid | 534.6
471.25 K, 9234 kPa, Liquid | 485.2
471.29 K, 4110 kPa, Liquid | 348.2
471.59 K, 9306 kPa, Liquid | 485.2
471.69 K, 16551 kPa, Liquid | 534.6
472.29 K, 9719 kPa, Liquid | 485.2
472.58 K, 4780 kPa, Liquid | 394.8
473.16 K, 3968 kPa, Liquid | 288.3
473.49 K, 4095 kPa, Liquid | 296.7
473.49 K, 4886 kPa, Liquid | 394.8
474.18 K, 4037 kPa, Liquid | 288.3
477.4 K, 7063 kPa, Liquid | 440.8
478.46 K, 7226 kPa, Liquid | 440.8
478.97 K, 10850 kPa, Liquid | 485.2
479.25 K, 10911 kPa, Liquid | 485.2
479.29 K, 4255 kPa, Liquid | 261.2
479.79 K, 4580 kPa, Liquid | 310.8
480.04 K, 11078 kPa, Liquid | 485.2
480.08 K, 4398 kPa, Liquid | 288.3
480.2 K, 11129 kPa, Liquid | 485.2
480.44 K, 4322 kPa, Liquid | 296.7
480.44 K, 11179 kPa, Liquid | 485.2
480.83 K, 4665 kPa, Liquid | 310.8
481.03 K, 4460 kPa, Liquid | 288.3
481.43 K, 11386 kPa, Liquid | 485.2
487.13 K, 6550 kPa, Liquid | 394.8
488.12 K, 6673 kPa, Liquid | 394.8
490.82 K, 9157 kPa, Liquid | 440.8
491.84 K, 9329 kPa, Liquid | 440.8
492.58 K, 13642 kPa, Liquid | 485.2
492.82 K, 13695 kPa, Liquid | 485.2
493.6 K, 13857 kPa, Liquid | 485.2
499.04 K, 6021 kPa, Liquid | 310.8
499.15 K, 8032 kPa, Liquid | 394.8
500.02 K, 6096 kPa, Liquid | 310.8
500.21 K, 8166 kPa, Liquid | 394.8
504.02 K, 15987 kPa, Liquid | 485.2
504.28 K, 16044 kPa, Liquid | 485.2
505.05 K, 16203 kPa, Liquid | 485.2
517.61 K, 10294 kPa, Liquid | 394.8
518.47 K, 10403 kPa, Liquid | 394.8
533.2 K, 12288 kPa, Liquid | 394.8
534.36 K, 12440 kPa, Liquid | 394.8
554.38 K, 14968 kPa, Liquid | 394.8
555.38 K, 15098 kPa, Liquid | 394.8
574.32 K, 17455 kPa, Liquid | 394.8
575.32 K, 17595 kPa, Liquid | 394.8
